Assay results reported in patent US20040053872A1, “New sequences” (priority 2000, published 2004).
Like-named read-outs stand apart in the source and are kept apart here. Strand notation (5' to 3'): a small letter for the sugar, then the base; units joined by * are phosphorothioate-linked, units joined directly phosphodiester-linked; [ ] holds rarer units or linkages, { } end groups; capitals alone tell only the bases. r = 2'-OH (RNA)

Experiments:
[1] = molecular target: T1, recombinant HIV-1 RT E478Q (Human immunodeficiency virus type 1 group M subtype B, UniProt P03366, E1077Q); test: RT assay: inhibition of RNA dependent DNA polymerisation (modified Lenti RT assay); assay type: biochemical; settings: read-out: IC50 of indicated inhibitor in RT assay
T1 construct: performed by recombinant HIV-1 RT:s with defined
Procedure: The flourimetric RT assay (Cavidi® Lenti RT activity kit), available from Cavidi Tech, Uppsala, Sweden, was used for the determination of RT activity. In short, poly(rA) covalently bound to the wells of a 96 well microtiter plate serves as template for the incorporation of 5-bromodeoxyuridine 5′-triphosphate (BrdUTP) during the reverse transcription step at 33° C. The amount of bromodeoxyuridine monophosphate (BrdUMP) incorporated into DNA is detected with an alkaline phosphatase (Ap) conjugated, anti-BrdU monoclonal antibody. An Ap substrate, 4-methylumbelliferyl phosphate, is finally used for fluorimetric product detection.
(i) Protocol for determination of inhibition of RNA dependent DNA polymerisation: The inhibition studies were performed in a modified Lenti RT assay. The inhibitors were serially diluted in five steps, whereupon enzyme dilution was added and the enzyme/inhibitor mixtures were incubated for 30 minutes at 33° C. The enzyme reaction was initiated by addition of 100 μl aliquots of the enzyme/inhibitor mixture to each well of a microtiter plate containing 100 μl RT reaction mixture per well. The polymerase reaction was allowed to proceed for 3 hours at 33° C., whereupon the reaction was terminated by a wash of the plate. […] The amount of RT used was standardised to an activity corresponding to 90-130 pg (7-10×10^−16 mol) reference HIV-1 RT per well
The capacity of the indicated substances to inhibit the enzymes in a panel of recombinant HIV 1 subtype B RTs was studied according to “Protocol for determination of inhibition of RNA dependent DNA polymerisation” (protocol (i) above). The final nucleotide substrate (BrdUTP) concentration was 0.35 μM, and the primer (odT22) amount was 0.03 ng per well.
The RT reaction time used was 3 hours and the results are depicted in FIG. 8 (A-C).

[2] = tested on: Mut1 (RNase H inactive mutant of HIV-1 RT); test: Gel mobility shifts in native polyacrylamide gel electrophoresis (PAGE); assay type: binding; settings: native 20% PAGE; ammonium sulphate up to […]
From the text: In the following experiment, the terms “34-mer” and “35-mer” refer to SEQ ID NO:3 (produced in example A1 above) and SEQ ID NO:4 (produced in example A2 above), respectively. […] Natural RT molecules have an RNase H activity which normally cleaves RNA molecules. […] This mutant is produced according to the method given in Schatz, O., Cromme, F. V., Grüninger-Leitch, F. and Le Grice, S. F. J., Febs Letter. Vol.257, No.2 p.311-314. This RT-mutant is further on referred to as Mut1. The following experiments are carried out:
2. Gel mobility shifts in polyacrylamide gel electrophoresis (PAGE) experiments.
a) Native 20% PAGE gel is run at 4-5° C. Samples are incubated at 4° C. in 50 mM hepes buffer and 5 mM magnesium chloride and varying salt concentrations as indicated below.
Samples are incubated for 90 min at 4° C. prior to a further 10 min incubation at 4° C. with ammonium sulphate and/or KCl. Samples applied to lanes 4 and 5 have twice the amount of 34-mer used for the other samples.
b) Native 20% PAGE gel run at 4-5° C. Samples are incubated at 4° C. in 50 mM hepes buffer and 5 mM magnesium chloride, with varying concentrations of ammonium sulphate.
Native 20% PAGE gel is run at 4-5° C. Samples are incubated at 4° C. in 50 mM hepes buffer, 15 mM manganese sulphate, 1 mM EDTA and 0.25 mM EGTA.
Samples are incubated 10 min at room temperature prior to a 60 min incubation at 4° C. One μl of sample solution is applied per lane. Electrophoresis is conducted with up to 400 volts while cooling to approximately 4° C. After 0.209 kWh the gel is silver stained.

[3] = tested on: panel of recombinant HIV 1 subtype B RTs; test: DNAp assay: inhibition of second strand DNA synthesis, whole RT panel; assay type: biochemical; settings: all RTs of the panel; summary of table 2; read-out: IC50, range over all RTs studied (second strand DNA synthesis)
From the text: The flourimetric DNA-polymerase assay used is available from Cavidi Tech AB, Uppsala, Sweden. It is based on a short DNA primer analogous to a part of the tRNA^Lys3 sequence. The template is a single stranded deoxynucleotide template with part of the sequence complementary to the primer. The enzyme reaction is dependent on all four deoxynucleotide bases. The thymidine triphosphate is, however, replaced by BrdUTP. The amount of BrdUMP incorporated into DNA during the polymerase reaction is detected with an alkaline phosphatase (Ap) conjugated anti-BrdU monoclonal antibody. An Ap substrate, 4-methylumbelliferyl phosphate, is finally used for fluorimetric product detection.
(ii) Protocol for determination of inhibition of second strand synthesis on a variable DNA template: The inhibition studies were performed in a modified DNA polymerase assay. […] The enzyme reaction was initiated by addition of 75 μl aliquots of the enzyme/inhibitor mixture to each well of a microtiter plate containing 75 μl DNA polymerase reaction mixture per well.
The results, which are summarised in table 2, were rather similar to those found for inhibition of reverse transcription (table 1).

[4] = molecular target: recombinant HIV-1 RT, ref RT (HIV type B, clone BH 10) (Human immunodeficiency virus type 1 group M subtype B, UniProt P03366); settings: read-out: Inhibition of binding to primer (BIC50), immobilised primer, binding 90 min at 33° C.
Procedure: (§1) (iii) Protocol for RT binding inhibition (BIC) assay: The study was performed in a modified DNA polymerase assay. The inhibitors were serially diluted in five steps, enzyme dilution was added and the enzyme/inhibitor mixtures were incubated for 30 minutes at 33° C. Aliquots of the enzyme/inhibitor mixture were transferred to each well of a microtiter plate containing either immobilised primer, or primer/template. The enzyme was allowed to bind to the immobilised polymer for 90 min at 33° C. The amount of RT used was standardised to an activity corresponding to 40-60 pg (3.3-5.0×10^−16 mol) reference HIV-1 RT per well. The plates were then washed to remove unbound enzyme whereupon the amount of bound enzyme was determined by addition of the appropriate reaction solution for polymerisation (i e a reaction solution devoid of primer for studies of primer binding and a reaction solution devoid of both primer and template for studies of binding to primed template). The polymerase reaction was allowed to proceed for 3 hours at 33° C., whereupon the reaction was terminated by a wash of the plate.
(§2) The capacity of the indicated substances to inhibit the binding to primer or to primed DNA template of a panel of recombinant HIV 1 subtype B RTs was studied according to “Protocol for RT binding inhibition (BIC) assay” (protocol (iii) above).

[5] = molecular target: T2, recombinant HIV-1 RT K103N/E478Q (Human immunodeficiency virus type 1 group M subtype B, UniProt P03366, E1077Q/K702N); settings: binding 90 min at 33° C.
T2 construct: performed by recombinant HIV-1 RT:s with defined
Procedure: as §1, §2

[6] = enzyme/inhibitor preincubated 30 minutes at 33° C., BrdUTP 0.35 μM, odT22 0.03 ng per well, 3 hours

substance 198: 15-mer RNA phosphorothioate with the base sequence of tRNALys3 anticodon stem and loop, SEQ ID NO:7 (rC*rA*rG*rA*rC*rU*rU*rU*rU*rA*rA*rU*rC*rU*rG) [reference compound]
IC50 [1, 6]: 320 nM | Complex with Mut1 at high salt concentrations [2]: dissociates from Mut1 | IC50 [3]: 550 to 1000 nM | IC50 [4]: 100 nM | IC50 ([5]; immobilised primer, read-out: Inhibition of binding to primer (BIC50)): 400 nM | IC50 ([5]; immobilised primer/template, read-out: Inhibition of binding to template/primer (BIC50)): 1000 nM

substance 199: 35-mer RNA molecule having the sequence set out in SEQ ID NO:5; similar to SEQ ID NO:4 with some naturally occurring nucleotide derivatives (GCUCAGNCGGNAGAGCANCAGACUUUUAANCUGAN; RNA, backbone, methylation of C and the base at N not given here; naturally occurring modified nucleosides at n positions)
IC50 ([1]; RT and inhibitor added directly to the assay mixture without preincubation): 11 nM | IC50 [1, 6]: 6 nM | IC50 [3]: 36 to 51 nM
